Test results taken from the METLIN SMRT retention time set (Domingo-Almenara et al. 2019).

Assay: gradient 5% acetonitrile 3 min, to 50% in 2 min, to 85% in 15 min, held 3 min, 100 µL/min
Conditions: column: Zorbax Extend-C18 2.1 x 50 mm; eluents: water / acetonitrile, 0.1% formic acid
In short: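 Mixtures of ~100 pure standards were chromatographed on a Zorbax Extend-C18 column (2.1 × 50 mm, 1.8 μm) at 100 μL/min using water and acetonitrile, each with 0.1% formic acid. Detection used a quadrupole time-of-flight mass spectrometer in positive and negative ionization mode, and data collection spanned 3 months. Retention time was obtained from adduct peaks picked computationally and each checked manually.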

SMILES | RP-LC retention time [s]
CSc1ccc(-c2nc3cc(C)ccn3c2Nc2ccc3c(c2)OCCO3)cc1 | 719
Cc1noc(C)c1Cc1ccc(C(=O)NCC23CCCC=C2NC(=O)CC3)o1 (configuration not stated) | 705
CC1CCc2nc3ncn(CC(=O)Nc4ccc(Cl)cc4F)c(=O)c3cc2C1 (configuration not stated) | 858
Cc1ccsc1C(=O)NCC12CCCC=C1N(CC1CC1)C(=O)CC2 (configuration not stated) | 904
CN(C)C[C@@H]1CN(c2ncccn2)C[C@H]1NC(=O)NCCc1ccccc1 | 600
CCc1nnc(-c2nnc(NC3CCCCCC3)c3ccccc23)o1 | 821
O=C(C1CC(=O)N(c2n[nH]c3cccc(F)c23)C1)N1CCN(c2ccccn2)CC1 (configuration not stated) | 582
COc1ccc(N2CC(NC(=O)C(=O)c3c(C)[nH]c4ccccc34)CC2=O)cc1 (configuration not stated) | 707
COc1ccc(CNC(=O)[C@@]23CCCC[C@H]2N(C)C(=O)CC3)c(OC)c1 | 663
CCOc1cccc(CNS(=O)(=O)c2cc(-c3nc(C(C)(C)C)cs3)cs2)c1 | 1270
O=C(Cc1ccc(Cl)cc1)Nc1ccsc1-c1nnc(C2CC2)o1 | 1190
O=C(Cc1ccccc1Cl)NCC(O)c1ccc(C(F)(F)F)cc1 (configuration not stated) | 806
Cn1c(=O)sc2cc(S(=O)(=O)N3CCC(C(=O)Nc4ccc(F)cc4)CC3)ccc21 | 854
CCCn1cc(C(=O)NC2CCN(Cc3ccccc3)CC2)c2cccnc21 | 624
O=C(Nc1ccc(N2CCOCC2)cc1)c1ccc2nc(-c3ccccc3)cn2c1 | 646
COc1ccc(Nc2c(-c3ccc4c(c3)OCO4)nc3cnccn23)cc1OC | 709
c1csc(-c2[nH]ncc2CN2CCN(c3cnn4cnnc4c3)CC2)c1 | 835
O=C(Cn1cccn1)N1CCCC(COCc2ccccc2)C1 (configuration not stated) | 709
COc1ccccc1N1CCN(c2cc(SCC(=O)NCc3ccc(Cl)cc3)ncn2)CC1 | 1110
Cc1cc(N2CCN(S(=O)(=O)c3ccccc3Cl)CC2)nc(NC2CCCCC2)n1 | 838

SMILES | RP-LC retention time [s]
Cc1ccc(-n2ccnc2SCc2nc(-c3ccc(Br)cc3)no2)cc1 | 1090
Cc1ccc(-n2c(CN3CCN(C(=O)Nc4ccc5c(c4)OCCO5)CC3)nc3cccnc32)cc1 | 676
CCCCn1cc(S(=O)(=O)Nc2ccc(Cl)cc2)c2cccnc21 | 1020
CC(C)(C)c1csc(-c2csc(S(=O)(=O)Nc3ccc(F)c(Cl)c3)c2)n1 | 1310
CCc1nnc([C@@H]2CC(F)(F)CN2C(=O)CCn2cccn2)o1 | 639
Cc1ccccc1-n1ccn(Cc2nc(-c3ccc(Cl)c(F)c3)no2)c(=O)c1=O | 679
Cc1ccc(NC(=O)Nc2c(-c3ccc(F)cc3)nc3ccccn23)cc1C | 714
Cc1cc(Nc2ncccc2S(N)(=O)=O)ccc1F | 820
COCCNC(=O)CN1c2ccccc2NC2=C(C(=O)CC(C)(C)C2)C1c1ccc(F)cc1 (configuration not stated) | 752
Cc1cccc(S(=O)(=O)N2CCc3c(c(-c4nnc(-c5ccccc5F)o4)nn3C)C2)c1 | 999
CCCNC(=O)CCC1CCN(c2cc(NCCC)ncn2)CC1 | 606
CC(C)(C)c1csc(-c2csc(S(=O)(=O)NCc3ccccc3F)c2)n1 | 1220
Cc1ccc(NC(=O)c2cn(C)nc2S(=O)(=O)N2CCSCC2)cc1C | 987
Cc1cc(Nc2ccccc2)nc(N2CCN(C(=O)Nc3ccccc3)CC2)n1 | 693
O=C(c1ccc2ccnc(N3CCN(c4ccc(F)cc4)CC3)c2c1)N1CCC2(CC1)OCCO2 | 724
O=C(CN1C(=O)c2cccc3cccc(c23)C1=O)NCc1ccc2c(c1)OCO2 | 747
Cc1ccc(CNS(=O)(=O)c2cc3n(c2)CCCNC3=O)cc1C | 739
O=c1c2sccc2n(Cc2nc(-c3ccc(F)c(Cl)c3)no2)c(=O)n1Cc1ccccc1 | 1210
O=C(NCCc1ccco1)C1CCN(Cc2cc3ccccc3n2Cc2ccccc2)CC1 | 762

Continued, values first:

RP-LC retention time [s] | SMILES
626 | COC(=O)c1c(C)[nH]c(C(=O)N2CCCC(C(=O)NCCN(C)C3CCCCC3)C2)c1C (configuration not stated)
766 | Cc1ccc(C)c(NC(=O)N2CCC3(CC2)NC(=O)c2ccccc2O3)c1
1130 | CCN1CCCn2cc(S(=O)(=O)Nc3ccc(C)cc3)cc2C1=O
615 | O=C(CN1C(=O)C2CCCCN2c2ccc(C(=O)N3CCCCC3)cc21)NCc1cccnc1 (configuration not stated)
704 | COc1ccc([C@H]2Sc3ccccc3N(CCN(C)C)C(=O)[C@H]2OC(C)=O)cc1
836 | O=C(C1CCC1)N1CCc2sc(S(=O)(=O)NCc3ccc4c(c3)OCO4)cc2C1
626 | COCC(=O)N(C)CCc1noc(-c2ccc(C(=O)N3CCCC3)cc2)n1
726 | CN(C(=O)c1ccc(-c2cccc([N+](=O)[O-])c2)o1)C1CCS(=O)(=O)C1 (configuration not stated)
750 | COC(=O)c1c(C)[nH]c(C(=O)N2CCC(CC(=O)NCCc3c[nH]c4ccc(C)cc34)CC2)c1C
702 | Cc1ccc(C)c(NC(=O)C(=O)NCC(c2ccc3c(c2)OCO3)N2CCN(C)CC2)c1 (configuration not stated)
1110 | COc1cccc(-c2ccc(=O)n(Cc3nc(-c4ccc(Cl)cc4)no3)n2)c1
666 | CCOc1ccc(NC(=O)Cn2cnc3nc(N4CCCC(C(=O)NC)C4)sc3c2=O)cc1 (configuration not stated)
791 | COCCCNC(=O)c1nccnc1NC(=O)c1ccc(C)cc1
716 | Cn1cccc1C(=O)N1CCCC1c1nc(-c2ccccc2)n[nH]1 (configuration not stated)
556 | COc1cccc(CNC2CCN(c3ccc(C(=O)NC4CC4)cn3)C2)c1O (configuration not stated)
577 | CCCN1CCN(C(=O)CN(C)S(=O)(=O)c2ccc3c(c2)CCCC(=O)N3)CC1
812 | Cc1noc(C)c1-c1ccc(S(=O)(=O)NC(C)C)cc1
1130 | CCOC(=O)c1nc(N(CC)c2ccc(CC)cc2)c2ccccc2n1
758 | COc1ccc(N2C=C(C(=O)N3CCCC3)S(=O)(=O)c3ccc(F)cc32)cc1OC
599 | CN1CCC(NC(=O)C2CCN(C(=O)c3ncn4c3COC(c3ccc(F)cc3)C4)CC2)CC1 (configuration not stated)
1340 | COC(=O)c1ccc2c(=O)n(-c3ccc(C)cc3)c(N3CCCCCC3)nc2c1
804 | COc1ccc(C(=O)N2CCCC(c3nnc(-c4ccccc4)o3)C2)cc1 (configuration not stated)
1170 | CSc1ccc(Cl)c(-c2nc(-c3ccc4c(c3)oc(=O)n4C)no2)c1
773 | CCCc1c(C(=O)O)nnn1-c1ccc(OC)c(Cl)c1

RP-LC retention time [s] | SMILES
1070 | COc1ccccc1N1CCN(c2cc(SCC(=O)Nc3cc(C)ccc3C)ncn2)CC1
826 | CCOc1ccc2nc(NC(=O)C3CCN(C(=O)C4Sc5ccccc5NC4=O)CC3)sc2c1 (configuration not stated)
718 | CCCNc1cc(N2CCC(CCC(=O)NCc3ccc(Cl)cc3)CC2)ncn1
642 | COc1cc(Cl)c(NC(=O)C2CCCN(C(=O)c3cc(-c4ccncc4)n[nH]3)C2)c(OC)c1 (configuration not stated)
585 | Cn1cnc2cc(-c3noc(CNC(=O)c4ccco4)n3)ccc21
759 | COCCNC(=O)c1nccnc1NC(=O)c1ccc(C)cc1
971 | CSc1cccc(NC(=O)N2CCc3c(c(C(=O)N4CCCC4)nn3C)C2)c1
678 | N#CCCN1CCN(c2ccc(NC(=O)c3ccc(Br)cc3)c(C(=O)O)c2)CC1
624 | Cn1nccc1C(=O)N1CCC(c2nncn2Cc2ccccc2)CC1
778 | O=C(NCc1csc(-c2cccs2)n1)C1CCN(C(=O)Cc2ccc(F)cc2)CC1
875 | CCc1cccc(CC)c1NC(=O)c1cccc(OC)c1
1160 | O=S(=O)(c1ccc(Br)cc1)N1CCCC1c1nc(-c2ccc(F)cc2)no1 (configuration not stated)
669 | Cc1cccc2nnc(N3CCCC(C(=O)Nc4ccc5c(c4)OCCO5)C3)n12 (configuration not stated)
926 | O=C(c1cc(S(=O)(=O)N2CCCCCC2)ccc1Cl)N1CCN(c2ncccn2)CC1
766 | CCOC(=O)C1CCN(C(=O)C2c3ccccc3C(=O)N3CCc4cc(OC)c(OC)cc4C23)CC1 (configuration not stated)
616 | Cc1ccnc(N2CCC(C(=O)N3CCN(C(=O)c4ccco4)CC3)CC2)n1
751 | Cc1cccc(NC(=O)N2CCC(CC(=O)N3CCCCC3)CC2)c1C
913 | O=C(c1nnc(-c2csc(S(=O)(=O)N3CCN(c4ncccn4)CC3)c2)o1)N1CCCC1
573 | Cc1ccc2c(Nc3cccc(C(F)(F)F)c3)c(C(=O)N3CCOCC3)cnc2n1
1020 | COC(=O)c1cc(S(=O)(=O)N2CCCC2C(=O)Nc2cccc3c2CCCC3)cn1C (configuration not stated)
738 | Cc1oc(-c2[nH]ncc2C(=O)N2CCCCC2)cc1S(=O)(=O)Nc1ccc(F)cc1
764 | CCn1ncc(NC(=O)COc2ccc(C)cc2)c(N2CCOCC2)c1=O
1080 | COCCCn1c(=O)c2ccccc2n(Cc2nc(-c3cccc(C(F)(F)F)c3)no2)c1=O
589 | CC(C)N1CCN(C(=O)c2cc(-c3ccccc3)n[nH]2)CC1
